Laboratory results as given in patent US20240361324A1, “POINT OF SERVICE METHOD OF DETECTING, DIAGNOSING AND FOLLOWING CANCER AND OTHER PROLIFERATIVE CONDITIONS” (priority 2021, published 2024).
Entries after “also recorded” stand apart in the source; their conditions may differ.

Assays:
Type in all cases: cell-based, human
p80 [1] = experiment: Western analysis of p80 expression in drug-treated SKOV3 cells; details: for expression of p80 (Western blotting): OVCA cells, calculated as p80 per mg protein or DNA; for expression of p80 (Western analysis): SKOV3, 24-hour treatment, compared to control DMSO-treated cells
Protocol: FIG. 9. […] Rat brain extract was used as a positive control (lane e). MW=Molecular weight markers (High Range SDS-PAGE standard). Actin was detected as loading control.
Western Blot Analysis: The cell monolayer was lysed with lysis buffer containing six protease inhibitors (Protease Cocktail; Roche), incubated on ice for 10 min, and scraped with a rubber policeman. Cell lysate was collected and centrifuged at 12,000× g for 30 min. Supernatants were saved for SDS-PAGE and Western blot analysis, and pellets were extracted by SDS-PAGE sample buffer (minus reducing reagent). The total amount of protein in each extract was determined by the bicinchoninic acid (BCA) method. SDS-PAGE was performed, loading the same amount of total protein in the same volume into each sample well, using commercially available precast 4-15% gradient SDS-polyacrylamide gels (Bio Rad). High range SDS-PAGE standard (Bio Rad) was run as a standard. After electrophoresis, proteins were transferred onto a PVDF membrane. After transfer, the membrane was incubated with primary antibody, then washed, and incubated with peroxidase-labeled second antibody. Signals were visualized on Hyperfilm-ECL by the ECL-reagents (Amersham).
SDS-PAGE and Western Blot Analysis: The cell monolayer was lysed with lysis buffer containing 6 protease inhibitors (Boehringer-Mannheim). Cell lysate was collected by centrifugation after the supernatants were saved. The pellet was extracted by boiling with SDS-containing buffer. The total amount of protein in each extract was determined. SDS-PAGE was performed by loading the same amount of total protein into each sample well. After electrophoresis, proteins were electro-transferred onto a PVDF membrane. Then, the membrane was incubated with primary antibody, washed, and incubated with peroxidase conjugated horse anti-mouse IgG (H+L). Signals were developed with an enhanced luminescence reagent (ECL, Amersham) and visualized on Hyper ECL-Film. (Amersham). Signal density was measured and analyzed by a densitometer. Western analysis can furnish information on immunoreactivity and molecular size; therefore, this technique was often used for the first-line screening of the presence of p80. However, if there was any ambiguity about the cross-reactivity, the results were double checked with Northern blotting or RT-PCR with specific primers.
(§1) Rationale and Experiments: In order to assess the effects of various classes of chemotherapy on p80-containing OVCA cells and to elucidate the relationship between p80, EM, and OVCA proliferation, EM or tamoxifen or the NADPH-oxidase inhibitor diphenyleneiodonium treatment was carried out. […] The treatment was followed with Western blotting to determine the effect of each agent on p80 expression. To control for reduced cell numbers or changes in cell volume as confounding factors, results were calculated on the basis of p80 per mg protein or DNA in the cells.

OVCA cell lines [2] = experiment: MTT assay of OVCA cell proliferation; details: data not shown; for cell proliferation (MTT assay): all the cell lines, same doses as the p80 experiment
Protocol: as §1
To further test the relationship between p80 and OVCA proliferation, OVCA cells were treated with EGF and measured proliferation (MTT assay) and the expression of p80 (Western Blotting). Again, results were calculated on a per mg protein or DNA basis to avoid confounding. […] (2) E-M/ECC's and their roles as specific antimicrotubular agents will be tested.

OVCA cell lines [3] = experiment: 3H-thymidine uptake in cultured OVCA cells; details: all OVCA cell lines; 1-100 μg/ml
Excerpt: Culture of OVCA cell lines and cell cultures. Rationale: In order to determine the efficacy of inhibiting human OVCA cells with drugs, four extensively characterized OVCA cell lines, three in-house lines, DK2NMA, BIXLER, BIX3 (all courtesy of Drs. S. Chambers and B. Kacinski), (Peter B. Kaufman, William, Wu, Donghern Kim, Leland J. Cseke. Molecular Biology and Medicine. CRC Press inc., Boca Raton, Florida Chapter 12:289-304, 1995) and SKOV3, obtained from American Type Culture Collection, were established in mono-layer culture. Experiments: In preparation for drug treatment, cell suspensions were thor-oughly dispersed, precisely counted and then seeded into another flask at the desired cell den-sity. Conclusion: The cell lines were established, and test drugs shown to predictably affect the cells. Results were produced that meet stringent reliability criteria, including precision i.e., small variability between replicates.
Inhibition of OVCA cell proliferation by EM (estrogen mustard). Rationale: Clini-cally, EM has modest systemic toxicity and has been partially effective in the treatment of advanced prostatic carcinoma. […] Therefore, the effect of EM on OVCA cells was studied. Experiments: 3H-thymidine uptake was used to test the effect of EM against cultured OVCA cells in a wide range of concentrations (1-100 μg/ml). […]

OVCA cell lines [4] = experiment: Flow cytometry of the cell cycle distribution of OVCA; details: all OVCA cell lines; 24 hours treatment; 1-100 μgm/ml; compared to control DMSO-treated cells
Excerpt: Effect of EM on the cell cycle of OVCA. Rationale: Since EM's antiproliferative activity could be due to the disruption of mitosis and other crucial microtubule-dependent cellular functions, flow cytometry was used to investigate the effect of EM on the cell cycle distribution of OVCA. Experiments: Following EM administration (1-100/ μgm/ml) the flasks were trypsinized and all cells subjected to flow cytometry in the Yale Cancer Center Core laboratory. […] Conclusions: (1) EM induced cell cycle synchronization at G2/M. This was consistent with an action on OVCA microtubule associated proteins (MAP's). (2) Synchronization in G2/M raised the possibility of radio-sensitization (Barnes WM. PCR amplification of up to 35-Kb DNA with high fidelity and high yield from lambda bacteriophage templates. Proc Natl Acad Sci USA March 15; 91 (6): 2216-20, 1994; Mandelkow E, Mandelkow E-M. Microtubules and microtubule-associated proteins. Current Opinion in Cell Biology 7:72-81, 1995.

p80 [5] = experiment: Western blotting of p80 in PMA-treated THP-1 cells; details: 10 ng/ml, 5 days
Protocol: (§2) FIG. 11. (Top): Light microscopy of THP-1 cells after treatment of PMA. A. untreated THP-1 cells; B. THP-1 cells treated with 10 ng for five days. (Middle): Western blotting analysis of p80 in PMA-treated THP-1 cells. M: protein markers, Lane 1. SKOV3 (OVCA) as p80 positive control, Lane 2. Untreated THP-1 cells, supernatant from the cell lysate. Lane 3. Untreated THP-1 cell, pellet from the cell lysate. Lane 4. 5 day-PMA (10 ng/ml) treated THP-1 cells, supernatant from the cell lysate. Lane 5:5 day-PMA (10ng/ml) treated THP-1 cells, pellet from the cell lysate. Lane 6: human brain protein extract as 350 kDa MAP1a control. Lanes 7-12 are duplications of Lane 1-7. Note: Before PMA treatment there is a thick 80 kDa band in Lane 2; after 5 days of PMA treatment, the 80 kDa band became undetectable. (Bottom): IF straining of THP-1 cells after 5 days treatment with PMA. A. Untreated THP-1 cells; B. PMA (10 ng/ml) treated THP-1 cells.
(§3) Terminal Differentiation of THP-1 leukemia cells was associated with decreased expression of p80. […] The slide was studied by a fluorescence microscope for the presence of the P80 and photographed. […] Before treatment with PMA, the cells were round with bright fluorescence (FIG. 11-a Bottom); after PMA treatment, the cells grew processes with no IF of P80 (FIG. 11b Bottom). […]

p80 [6] = experiment: Immunofluorescence staining of p80 in PMA-treated THP-1 cells; details: 10 ng/ml, 5 days
Protocol: as §2, §3

[7] = test system: THP-1 promonocytic leukemia cell line; experiment: Cell morphology/differentiation of THP-1 leukemia cells after PMA; details: THP-1 cells; 10 ng/ml
Protocol: as §2, §3

p80 [8] = experiment: SDS-PAGE/Western blot of p80 in BIX3 OVCA cells after EGF treatment; details: per mg protein or DNA basis, compared to untreated control
Protocol: FIG. 10. SDS-PAGE/Western blot analysis of p80 in BIX3 OVCA cells following treatment with EGF, (see text). The lanes are as follows: (a) protein standards, (b) control-untreated, (c) EGF-treated. The density of p80 expression was increased after EGF treatment. Actin was detected as loading control.
Stimulation of expression of p80 by epidermal growth factor (EGF). […] To further test the relationship between p80 and OVCA proliferation, OVCA cells were treated with EGF and measured proliferation (MTT assay) and the expression of p80 (Western Blotting). Again, results were calculated on a per mg protein or DNA basis to avoid confounding. Findings: (1) Increasing doses of EGF (10-50 ng/ml) stimulated OVCA proliferation in comparison to untreated controls (data not shown). […] (2) E-M/ECC's and their roles as specific antimicrotubular agents will be tested. Alternative approaches, such as targeting this molecule by using antisense DNA/RNA to block its expression could be helpful in elucidating whether the expression of this protein is a cause or an effect of OVCA proliferation. Furthermore, the antisense approach may also lead to the development of a novel modality for OVCA therapy targeting p80.

Compound | expression of p80 (Western blotting) (p80 [1]) | expression of p80 (Western analysis) (p80 [1]; 10 μM) | cell proliferation (MTT assay) (OVCA cell lines [2]) | also measured
c1ccc2c(c1)[I+]c1ccccc1-2 [DPI, diphenyleneiodonium] | significantly inhibited | significant decreases | significantly decreased | –
C[C@]12CC[C@@H]3c4ccc(OC(=O)N(CCCl)CCCl)cc4CC[C@H]3[C@@H]1CC[C@@H]2O [EM, estrogen mustard] | significantly inhibited | significant decreases | significantly decreased | 3H-thymidine incorporation (OVCA cell lines [3]): marked, dose-dependent inhibition; percentages of cells in G2/M phase (OVCA cell lines [4]): significant increase
CCCCCCCCCCCCCC(=O)O[C@@H]1[C@@H](C)[C@@]2(O)[C@@H](C=C(CO)C[C@]3(O)C(=O)C(C)=C[C@@H]23)[C@@H]2C(C)(C)[C@]12OC(C)=O [PMA, phorbol myristic acetate] | – | – | – | p80 (80 kDa band) on Western blots (p80 [5]): disappeared; also recorded: undetectable; immunofluorescence (IF) of p80 (p80 [6]): no IF of P80; differentiation / cell morphology [7]: began to differentiate to monocytes/macrophages
CC/C(=C(\c1ccccc1)c1ccc(OCCN(C)C)cc1)c1ccccc1 [TMX, tamoxifen] | significantly inhibited | – | significantly decreased | expression of p80 (Western analysis) (p80 [1]; 100 μM): significant decreases
epidermal growth factor (NSDSECPLSHDGYCLHDGVCMYIEALDKYACNCVVGYIGERCQYRDLKWWELR; Epidermal growth factor; UniProt P01133 971-1023, looked up) [EGF, growth factor; ovarian cancer cells have EGF receptors] | – | – | – | OVCA proliferation (MTT assay) (OVCA cell lines [2]; 10-50 ng/ml, increasing doses, compared to untreated controls): stimulated; expression of p80 (Western blotting) (p80 [8]): increased significantly
